We go through twelve compounds from patent US20220251092A1, “CASEIN KINASE 1EPSILON INHIBITOR, PHARMACEUTICAL COMPOSITION AND APPLICATION THEREOF” (HANGZHOU HEALZEN THERAPEUTICS CO., LTD., priority 2019, published 2022).

In general, IC50 refers to the concentration at which inhibition is half-maximal. A high value points to weaker potency.

The structures appear in SMILES notation.

Sequence of CK1ε (P49674 whole entry): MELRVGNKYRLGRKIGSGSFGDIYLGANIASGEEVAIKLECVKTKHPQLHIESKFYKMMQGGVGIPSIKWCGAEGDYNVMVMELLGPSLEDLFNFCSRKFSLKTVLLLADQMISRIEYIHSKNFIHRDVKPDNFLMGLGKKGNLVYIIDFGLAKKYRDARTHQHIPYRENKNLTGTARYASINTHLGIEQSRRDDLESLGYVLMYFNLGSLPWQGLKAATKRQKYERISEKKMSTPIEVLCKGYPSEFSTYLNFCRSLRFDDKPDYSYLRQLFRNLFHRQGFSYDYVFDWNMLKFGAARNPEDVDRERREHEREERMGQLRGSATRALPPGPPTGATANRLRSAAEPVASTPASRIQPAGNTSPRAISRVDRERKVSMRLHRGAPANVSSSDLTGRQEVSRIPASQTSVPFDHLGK

This assay addresses CK1ε (Homo sapiens, UniProt P49674). Description: CK1ε kinase activity assay (Caliper, FAM-labelled polypeptide). Type of assay: biochemical. Here is the method: The in-vitro assay of inhibitory activity of the compound herein against CK1ε kinase was:
(1) preparation of 1× kinase basic buffer and stop buffer: • 1×kinase basic buffer: 50 mM HEPES, pH 7.5; and 0.0015% Brij-35; • stop buffer: 100 mM HEPES, pH 7.5; 0.015% Brij-35; 0.2% Coating Reagent #3; and 50 mM EDTA.
(2) preparation of the test compound: • a 50× (“n×” represents dilution factor, same hereafter) stock solution of the compound with DMSO (10 mM, DMSO) to obtain stock solution I for use; […] of stock solution I was placed in a 96-well plate, each compound sample was diluted by 5-fold serial dilution till 10 concentrations was obtained while ensuring 10 μl of drug solution in each well; meanwhile, 100 μl of DMSO was used as a blank control group and a negative control group without enzyme substrate; • a separate 96-well plate was prepared, and to 10 μl of the above compound,
90 μl of 1× kinase foundation buffer was added, mixed well for 10 min to obtain a mixture.
Compound `COc1ccc(-c2nn([C@@H](C)c3nc4cccc(Cl)c4c(=O)n3-c3cccnc3)c3ncnc(N)c23)c(F)c1F` [II-B-2a, (S)-2-(1-(4-amino-3-(2,3-difluoro-4-methoxyphenyl)-1H-pyrazolo[3,4-d]pyrimidin-1-yl)ethyl)-5-chloro-3-(pyridin-3-yl)quinazolin-4(3H)-one] returned an IC50 of 202 nM.
As to `COc1ccc(-c2nn([C@@H](C)c3nc4cccc(F)c4c(=O)n3-c3ccccc3)c3ncnc(N)c23)c(F)c1F` [II-A-8a, (S)-2-(1-(4-amino-3-(2,3-difluoro-4-methoxyphenyl)-1H-pyrazolo[3,4-d]pyrimidin-1-yl)ethyl)-5-fluoro-3-phenylquinazolin-4(3H)-one], it took 60 nM to reach half-maximal inhibition (IC50). Compared with the last compound, the IC50 is about 3.4-fold lower.
`CCOc1ccc(-c2nn(C(C)c3nc4ccccc4c(=O)n3-c3ccccc3)c3ncnc(N)c23)c(F)c1F` (stereo not drawn) [II-A-3, 2-(1-(4-amino-3-(4-ethoxy-2,3-difluorophenyl)-1H-pyrazolo[3,4-d]pyrimidin-1-yl)ethyl)-3-phenylquinazolin-4(3H)-one] had an IC50 of 232 nM.
In turn, `CC(C)Oc1ccc(-c2nn([C@H](C)c3nc4ccccc4c(=O)n3-c3ccccc3)c3ncnc(N)c23)c(F)c1F` [II-A-2b, (R)-2-(1-(4-amino-3-(2,3-difluoro-4-isopropoxyphenyl)-1H-pyrazolo[3,4-d]pyrimidin-1-yl)ethyl)-3-phenylquinazolin-4(3H)-one] yielded an IC50 of 450 nM.
The compound `COc1ccc(-c2nn(C(C)c3nc4ccccc4c(=O)n3-c3ccccc3)c3ncnc(N)c23)c(F)c1Cl` (stereo not drawn) [II-A-5, 2-(1-(4-amino-3-(3-chloro-2-fluoro-4-methoxyphenyl)-1H-pyrazolo[3,4-d]pyrimidin-1-yl)ethyl)-3-phenylquinazolin-4(3H)-one] gave an IC50 of 386 nM.
Regarding `CC(C)Oc1ccc(-c2nn([C@@H](C)c3nc4ccccc4c(=O)n3-c3ccccc3)c3ncnc(N)c23)c(F)c1F` [II-A-2a, (S)-2-(1-(4-amino-3-(2,3-difluoro-4-isopropoxyphenyl)-1H-pyrazolo[3,4-d]pyrimidin-1-yl)ethyl)-3-phenylquinazolin-4(3H)-one], the IC50 is 88 nM.
`CC(c1nc2ccccc2c(=O)n1-c1ccccc1)n1nc(-c2ccc(OC3CC3)c(F)c2)c2c(N)ncnc21` (stereo not drawn) [Compound B, reference compound] came in with an IC50 of 2710 nM.
With `COc1cc(F)c(-c2nn(C(C)c3nc4ccccc4c(=O)n3-c3ccccc3)c3ncnc(N)c23)c(F)c1` (stereo not drawn) [II-A-12, 2-(1-(4-amino-3-(2,6-difluoro-4-methoxyphenyl)-1H-pyrazolo[3,4-d]pyrimidin-1-yl)ethyl)-3-phenylquinazolin-4(3H)-one], the IC50 was 202 nM.
`CC(C)Oc1ccc(-c2nn(C(C)c3nc4ccccc4c(=O)n3-c3ccccc3)c3ncnc(N)c23)cc1F` (stereo not drawn) [Compound A, reference compound]: half-maximal inhibition (IC50) required 1730 nM.
Take `COc1ccc(-c2nn([C@H](C)c3nc4ccccc4c(=O)n3-c3ccccc3)c3ncnc(N)c23)c(F)c1F` [II-A-1b, (R)-2-(1-(4-amino-3-(2,3-difluoro-4-methoxyphenyl)-1H-pyrazolo[3,4-d]pyrimidin-1-yl)ethyl)-3-phenylquinazolin-4(3H)-one]: the IC50 is 484 nM.
For `COc1ccc(-c2nn(C(C)c3nc4cccc(Cl)c4c(=O)n3-c3cncc(F)c3)c3ncnc(N)c23)c(F)c1F` (stereo not drawn) [II-B-3, 2-(1-(4-amino-3-(2,3-difluoro-4-methoxyphenyl)-1H-pyrazolo[3,4-d]pyrimidin-1-yl)ethyl)-5-chloro-3-(5-fluoropyridin-3-yl)quinazolin-4(3H)-one] the value was 89 nM; for `COc1ccc(-c2nn(C(C)c3nc4ccc(F)cc4c(=O)n3-c3ccccc3)c3ncnc(N)c23)c(F)c1F` (stereo not drawn) [II-A-9, 2-(1-(4-amino-3-(2,3-difluoro-4-methoxyphenyl)-1H-pyrazolo[3,4-d]pyrimidin-1-yl)ethyl)-6-fluoro-3-phenylquinazolin-4(3H)-one], 100 nM.
